Measurements as given in patent US4731383A, “Aminoguanidine compounds, their compositions and pharmaceutical uses” (Biogal Gyogyszergyar, priority 1983, dated 1988).
Counter-ions that a name gives are not always drawn. Like-named read-outs stand apart in the source and are kept apart here.

Legend:
[1] = test system: mice treated with aconitin; assay: animal or person; format: in vivo; conditions: Mus musculus, read-out: Delay in the appearance time of arrhythmia
Protocol: Arrhytmia was induced in male mice, weighing 20 to 25 g, by treating them continuously, at a rate of 0.2 ml/min with an infusion containing 5 μg/kg of aconitin. The test compound was administered to the animals either intraperitoneally (by injecting it into the abdominal cavity) 15 minutes before the start of the infusion, or orally 60 minutes before the onset of the infusion. The time of the appearance of arrhythmia was recorded, and the percentage of delay was calculated in relation to the data obtained in the controls, pretreated with 0.9 percent sodium chloride solution only [B. Vargaftig and J. L. Coignet: European J. of Pharmacol. 6, 49 to 55 (1969); N. K. Dadkar and B. K. Bhattachariya: Arch. Int. Pharmacodyn. 212, 297 to 301 (1974); D. U. Nwagwu, T. L. Holcslaw and S. J. Stohs: Arch. Int. Pharmacodyn. 229, 219 to 226 (1977)].

in vivo = conditions: mouse
[2] = test system: right ventricle of isolated rabbit heart; assay: Electrophysiological tests in the isolated rabbit heart, right ventricle; conditions: n = 4
Protocol: (§1) Hearts of rabbits of both sexes, weighing 1 to 2 kg, were removed, the right and left auricles and a segment of the right ventricle were prepared and placed into a vessel filled with nutrient solution. Bipolar platinum electrodes (a stimulating electrode and a lead electrode) were placed on the organ strips, and the electric stimulus threshold and the speed of impulse conduction were measured. The effective refractory period was determined on the basis of the maximal driving frequency.

[3] = test system: left auricle of isolated rabbit heart; assay: Electrophysiological tests in the isolated rabbit heart, left auricle; conditions: for Change in conduction time / Change in electric stimulus threshold / Change in max. driving frequency: n = 4
Protocol: as §1

Cc1ccccc1NNC(=N)N(C)C [Example 1, 1-(2-Methylphenyl)-4,4-dimethyl-aminoguanidine hydrochloride]
change in vivo at 25 mg/kg ([1]; ip): 164%
change in vivo at 50 mg/kg ([1]; ip): 174%
change in vivo at 50 mg/kg ([1]; po): 102%
change in vivo at 100 mg/kg ([1]; po): 197%
LD50 (in vivo; ip): 81 mg/kg
LD50 (in vivo; po): 203 mg/kg
Change in conduction time ([2]; 0.25 mg/l): +0.2%
Change in electric stimulus threshold ([2]; 0.25 mg/l): 0%
Change in max. driving frequency ([2]; 0.25 mg/l): -0.88%
Change in conduction time ([2]; 0.5 mg/l): +3.31%
Change in electric stimulus threshold ([2]; 0.5 mg/l): -1.43%
Change in max. driving frequency ([2]; 0.5 mg/l): -0.38%
Change in conduction time ([2]; 1.0 mg/l): +14.84%
Change in electric stimulus threshold ([2]; 1.0 mg/l): +5.42%
Change in max. driving frequency ([2]; 1.0 mg/l): -1.82%
Change in conduction time ([2]; 2.0 mg/l): +36.75%
Change in electric stimulus threshold ([2]; 2.0 mg/l): +20.6%
Change in max. driving frequency ([2]; 2.0 mg/l): -10.33%
Change in conduction time ([2]; 4.0 mg/l): +52.45%
Change in electric stimulus threshold ([2]; 4.0 mg/l): +23.6%
Change in max. driving frequency ([2]; 4.0 mg/l): -17.43%
Change in conduction time ([2]; 8.0 mg/l): +77.82%
Change in electric stimulus threshold ([2]; 8.0 mg/l): +35.8%
Change in max. driving frequency ([2]; 8.0 mg/l): -36.8%
Change in conduction time ([3]; 0.25 mg/l): +0.54%
Change in electric stimulus threshold ([3]; 0.25 mg/l): 0%
Change in max. driving frequency ([3]; 0.25 mg/l): -0.08%
Change in conduction time ([3]; 0.5 mg/l): +8.66%
Change in electric stimulus threshold ([3]; 0.5 mg/l): -1.82%
Change in max. driving frequency ([3]; 0.5 mg/l): -0.98%
Change in conduction time ([3]; 1.0 mg/l): +12.55%
Change in electric stimulus threshold ([3]; 1.0 mg/l): -11.8%
Change in max. driving frequency ([3]; 1.0 mg/l): -9.21%
Change in conduction time ([3]; 2.0 mg/l): +28.42%
Change in electric stimulus threshold ([3]; 2.0 mg/l): +30.84%
Change in max. driving frequency ([3]; 2.0 mg/l): -17.09%
Change in conduction time ([3]; 4.0 mg/l): +47.87%
Change in electric stimulus threshold ([3]; 4.0 mg/l): +43.4%
Change in max. driving frequency ([3]; 4.0 mg/l): -28.82%
Change in conduction time ([3]; 8.0 mg/l): +114.03%
Change in electric stimulus threshold ([3]; 8.0 mg/l): +83.9%
Change in max. driving frequency ([3]; 8.0 mg/l): -59.1%
inhibition at 0.25 µg/mL ([3]; Oryctolagus cuniculus, 0.25 mg/l, n = 4, read-out: Contractility): 2.61%
inhibition at 0.5 µg/mL ([3]; Oryctolagus cuniculus, 0.5 mg/l, n = 4, read-out: Contractility): 7.57%
inhibition at 1 µg/mL ([3]; Oryctolagus cuniculus, 1.0 mg/l, n = 4, read-out: Contractility): 15.5%
inhibition at 2 µg/mL ([3]; Oryctolagus cuniculus, 2.0 mg/l, n = 4, read-out: Contractility): 18.1%
inhibition at 4 µg/mL ([3]; Oryctolagus cuniculus, 4.0 mg/l, n = 4, read-out: Contractility): 27.1%
inhibition at 8 µg/mL ([3]; Oryctolagus cuniculus, 8.0 mg/l, n = 4, read-out: Contractility): 37.9%
